In US8541426B2, “Pharmaceutical compositions and methods of treating dry eye disorders” (Pfizer Inc., priority 2007, dated 2013):

Tests used:
dry-induced C57 mice = assay: Induced dry eye mouse model (scopolamine and fans), tear production; type: in vivo; conditions: for tear production versus normal tear production values: after 4 days of treatment, induced dry eye mice
Protocol: An injection was prepared comprising 2.5 mg/ml scopolamine (sigma) in injectable saline (1-1.5 ml per animal). In normal C57 mice (200-250) ul of scopolamine was injected four times every 2.5 hrs in alternating hind quarters. The mice were placed in special cages (with holes in front and back) and placed in a hood. Fans were placed in front of each cage, and turned on for 16 hours over night for five days.
Measurements were taken daily.
As with Examples 4 and 5 above, animals were treated with drug or vehicle at 1 μl, once a day for 2 weeks.

MRL/Ipr (Dry Eye) Mice = tested on: MRL/Ipr (Dry Eye) Mice
Protocol: To study the level of tear production over time, 10 MRL/Ipr mice and 5 of the age-matched C57 Black/6 control mice at 8 weeks of age were purchased from Jackson Laboratory (Bar Harbor, Me., USA). The mouse strain MRL/Ipr has a mutation which predisposes it to dry eye similar to Sjogren's Syndrome.
Tear production was measured with cotton thread (Quick Zone®) held with forceps and applied to the ocular surface at the lateral canthus for 15 to 30 seconds. Wetting of the thread was measured in millimeters.
C57 mice also received vehicle. Tear volume was measured on days 2, 3, and 6.
Tear measurement was done using phenol red impregnated thread (Quick Zone®) and baseline measurement was performed before each drug application. Drugs or vehicles were applied at 2 μl, two times a day.
Vehicle-treated normal C57black/6 and MRL/Ipr dry eye mice were used as normal control and dry eye control, respectively.
Control animals included normal C57Black/6 mice, and MRL/Ipr mice, treated with PBS vehicle and MRL/Ipr mice treated with Refresh Endura® (vehicle for Restasis) (5-10 mice/group).
As with Example 4 above, vehicle-treated normal C57black/6 and MRL/Ipr dry eye mice (5-10 mice/group) were used as normal control and dry eye control, respectively. […] Treatment for Formulation 1 was carried for two weeks, at 2 μl, twice a day.

[1] = CP-690550 0.01% vs Restasis (cyclosporine 0.05%), twice a day for 30 days, MRL/Ipr mice (FIG. 3)

Compound: C[C@@H]1CCN(C(=O)CC#N)C[C@@H]1N(C)c1ncnc2[nH]ccc12 [CP0690550, 3-{(3R,4R)-4-Methyl-3-[methyl-(7H-pyrrolo[2,3-d]pyrimidin-4-yl)-amino]-piperidin-1-yl}-3-oxo-propionitrile]
- tear production versus normal tear production values (dry-induced C57 mice; 0.003% in Formulation 5, once a day): approximated normal tear production values
- tear production versus normal tear production values (dry-induced C57 mice; 0.01% (w/w) in Formulation 3, once a day): approximated normal tear production values
- increase in tear production (dry-induced C57 mice; Formulations 3 and 5, 1 μl once a day, at 2 days of treatment, induced dry eye mice (FIGS. 7 and 8)): significant increase
- tear production comparable to normal: within x% of tear production by C57 normal mice (MRL/Ipr (Dry Eye) Mice; 0.01% (w/w) in Formulation 1 vehicle, twice a day, within 8 days, MRL/Ipr mice (FIG. 4)): 5 to 10%
- increase of tear production volume (MRL/Ipr (Dry Eye) Mice; 0.1% (w/w) twice a day, topical, MRL/Ipr mice, within the first 2 days of application (FIG. 2)): significantly increase
- response rate as compared to Restasis (MRL/Ipr (Dry Eye) Mice; [1]): much faster response rate
- volume of tear production over Restasis (MRL/Ipr (Dry Eye) Mice; [1]): significant improvement
- improvement in tear production (MRL/Ipr (Dry Eye) Mice; all comparisons (Formulations 1, 3 and 4 vehicle, FIGS. 4-6), 2 days after treatment, MRL/Ipr mice): significant improvement
- tear production volume comparable to normal: within x% of tear production by normal C57 mice (MRL/Ipr (Dry Eye) Mice; ultimately reached, MRL/Ipr mice, FIGS. 3 and 4): 5 to 10%
